Reference: paper PMC11305387, “AlphaFold accelerated discovery of psychotropic agonists targeting the trace amine–associated receptor 1” (Science Advances, 2024)
Where “and” joins values, the source holds several entries; their conditions need not be identical. Identical values can stand only once. Like-named read-outs stand apart in the source and are kept apart here.

Experiments:
hTAAR1 = target: T1, hTAAR1 (Homo sapiens, UniProt Q96RJ0); test: G protein (mini-Gs) recruitment luminescence complementation assay, agonist mode; assay type: cell-based
T1 construct: expressed in transfected cells; host or cells: Expi293F
T1 sequence (Q96RJ0 1-339): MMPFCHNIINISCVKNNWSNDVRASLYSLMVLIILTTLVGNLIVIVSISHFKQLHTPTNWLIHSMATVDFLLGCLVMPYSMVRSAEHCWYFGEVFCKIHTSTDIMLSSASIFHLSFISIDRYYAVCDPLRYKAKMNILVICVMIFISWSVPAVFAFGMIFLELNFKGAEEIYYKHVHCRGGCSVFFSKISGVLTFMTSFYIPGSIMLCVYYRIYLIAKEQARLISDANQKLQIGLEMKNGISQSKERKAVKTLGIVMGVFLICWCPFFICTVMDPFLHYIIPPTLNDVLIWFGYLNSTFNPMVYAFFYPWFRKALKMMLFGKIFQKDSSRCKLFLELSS
Protocol: The 62 predicted ligands were purchased from commercial vendors and tested for activity at a concentration of 20 μM in a luminescence complementation–based assay measuring recruitment of mini-Gs to the human TAAR1 ([38]).
To monitor TAAR1 activation by compounds, we used our previously described system. […] Cells were then reseeded in solid white, 96-well plates (Corning) with 90 μl of cell suspension per well. Luminescence was read using a plate reader for 5 min (SPARK 10 M, Tecan) before the addition of compounds to ensure signal stability. Ten microliters of each compound diluted in DPBS was added, and luminescence from each well was read for 10 min, with 100-ms read time per well. The A2AR counter-screen was performed using the same protocol. In these experiments, the hTAAR1 was replaced by a C-terminally SmBiT-tagged hA2AR construct.

[1] = system: TAAR1-WT and TAAR1-KO mice; test: Core-body temperature (CBT) measurement; assay type: in vivo; settings: TAAR1-KO mice, 1 mg/kg (fig. S13A)
Protocol: Core temperature was determined by a rectal thermoprobe. Compounds or vehicle was administered intraperitoneally. A basal measurement was performed immediately before injection. Measurements were repeated every 30 min for 2 hours. Mean changes in CBT were calculated by subtracting the value from vehicle treated group at the corresponding time point. A washout of 1 week between different doses of compound 65 was applied, and mice were injected starting with the lowest dose first.

WT and TAAR1-KO mice [2] = test: Pre-pulse inhibition (PPI) behavioral assay; assay type: in vivo; settings: compound 65 1 mg/kg, risperidone 0.2 mg/kg i.p.
Protocol: Measurements were performed using startle response chambers (San Diego Instruments, San Diego, CA, USA). Each chamber is sound-isolated and contains a Plexiglass animal enclosure attached to a platform and a loudspeaker that can produce both continuous white noise and acoustic pulses of varying intensities. The animal enclosure is large enough for the animal to turn around and make other movements to reduce restraint stress. Mouse startle responses to acoustic stimuli are transformed by a piezoelectric transducer under the platform into an analog signal. The transducers were calibrated before each experiment using a standardization unit (San Diego Instruments, San Diego, CA, USA), and the speakers were calibrated using a Type 2670 Microphone Preamplifier, a Type 4230 Sound Level Calibrator, and a Type 2610 Measuring Amplifier (Brüel & Kjær, Nærum, Denmark). To habituate the mice to the chambers, they were placed in the enclosure for 5 min, with 65-dB background white noise, on three different days before the start of experiments. PPI measurements were then conducted on each mouse on four occasions separated by 96 hours. The first occasion was a mock test session where all mice were injected with vehicle, serving to reduce the effect of novelty on subsequent sessions. The next three sessions were true test sessions with injection of either compound 65, risperidone, or vehicle. The R package agricolae was used to generate a randomized block design, randomizing treatment order across sex, genotype, and test session.
Animals were brought to the testing room for habituation 60 min before the starting of tests. Thirty minutes before PPI measurements, mice were injected with either compound 65 (1 mg/kg), risperidone (0.2 mg/kg), or vehicle intraperitoneally. Each test session started with a 5-min background noise (65-dB white noise) habituation period. The background noise continued throughout the test session. The habituation period was followed by four blocks of trials, with the first and last blocks consisting of five pulse-only trials (40-ms, 120-dB pulse). During block 2, five trial types were presented five times each in a pseudo-randomized order. The trial types included pulse only, no stimulus (NOSTIM), and three different pre-pulse trials in which 20 ms pre-pulses of different intensities (68, 71, or 77 dB) preceded the startle pulse (120 dB) by a 100-ms interval. Block 3 contained the same numbers and types of trials as block 2, but in a different pseudorandom order. […] PPI data are shown as PPI%, which was calculated as [1 − (pre-pulse trials/startle-only trials)] × 100. Mean PPI was calculated by adding the average PPI% for all pre-pulse intensities (3, 6, and 12 dB) and dividing it by the number (i.e., 3) of pre-pulse intensities.

WT and TAAR1-KO mice [3] = test: Open-field test: baseline locomotion and MK-801-induced hyperlocomotion; assay type: in vivo; settings: compound 65 1 mg/kg, risperidone 0.03 mg/kg
Protocol: To assess the influence of the compound on baseline locomotion and MK-801–induced hyperlocomotion, mice were subjected to open-field testing on four occasions separated by 96 hours. The first occasion was a mock test session where all mice were injected with vehicle only, serving to reduce the effect of novelty on subsequent sessions. The next three sessions were true test sessions with pretreatment of either compound 65, risperidone, or vehicle, followed by MK-801. The R package agricolae was used to generate a randomized block design, randomizing treatment order across sex, genotype, and test session. After injection with either compound 65 (1 mg/kg), risperidone (0.03 mg/kg), or vehicle intraperitoneally, mice were immediately placed in the open field and recorded for 15 min. They were then injected with MK-801 (0.35 mg/kg intraperitoneal) and recorded again for 60 min. The OFT arena measured 46 cm by 46 cm with gray floor and walls. The brightness at the center of each arena was 30 to 50 lux. The arenas were cleaned with 70% ethanol between each animal. Video from a camera mounted in the ceiling was analyzed using EthoVision XT11.5 (Noldus) software.

[4] = Tables S3A/S3B, compounds tested at 20 μM, relative to the maximal effect of β-PEA (20 µM)
[5] = TAAR1, G protein recruitment assay, read-out: pEC50 (converted)
[6] = relative to the effect of the reference agonist β-PEA, read-out: Emax

Row | Structure (SMILES) | Emax (hTAAR1; [4]) | EC50 (hTAAR1; [5]) | Emax (hTAAR1; [6]) | other results
1 | Cc1cccc(C2CCCN2)c1 (centres unmarked) [Compound 2] | 1.3% | – | – | –
2 | Cc1nc(C(N)C(C)O)cs1.Cl.Cl (centres unmarked) [Compound 3] | 2.3% | – | – | –
3 | Cl.Cl.c1cnc2c(c1)CNC2 [Compound 4] | 4.4% | – | – | –
4 | Cc1c(C(C)N)sc2ccccc12.Cl (centres unmarked) [Compound 5] | 8.5% | – | – | –
5 | CNC(C)c1nc2ccccc2s1 (centres unmarked) [Compound 6] | 8.8% | – | – | –
6 | CC(N)c1cc2ccccc2s1 (centres unmarked) [Compound 7] | 14.7% | – | – | –
7 | CCCN(CCC)C1CCc2cccc(O)c2C1 (centres unmarked) [Compound 8-OH-DPAT, 8-hydroxy-2-(di-n-propylamino)tetralin, reference compound] | – | – | – | CBT responsiveness [1]: validated the responsiveness of TAAR1-KO mice
8 | Br.NCc1cccc2c(O)cccc12 [Compound 8] | 14.9% | – | – | –
9 | NC1CSc2ccc(Br)cc21 (centres unmarked) [Compound 9] | 19.1% | – | – | –
10 | CNCc1cc2sccc2n1C [Compound 11] | 40.4% | – | – | –
11 | NCc1noc2ccc(F)cc12 [Compound 13] | – | 3.16 µM | 51.8% | –
12 | C[C@H](N)c1coc2ccccc12 [Compound 14] | – | 7.94 µM | 54.3% | –
13 | C[C@H](N)c1csc2ccccc12 [Compound 15] | – | 6.31 µM | 57.5% | –
14 | C[C@@H](N)c1cc2ccccc2o1 [Compound 16] | – | 1.58 µM | 61.9% | –
15 | NC[C@H]1Cc2cc(Br)ccc2O1 [Compound 17] | – | 6.31 µM | 67.8% | –
16 | Cc1ccc(-c2cccc3c2CNCC3)o1 [Compound 18] | – | 0.631 µM | 68.7% | –
17 | CN[C@H]1CCc2ccccc2C1 [Compound 19] | – | 3.98 µM | 74.5% | Emax at 20 µM (hTAAR1; [4]): 72.8%
18 | N[C@H]1COc2cccc(Br)c2C1 [Compound 20] | – | 3.98 µM | 74.5% | –
19 | Cc1cc2c(CCN)csc2s1 [Compound 21] | – | 3.16 µM | 75.2% | Emax at 20 µM (hTAAR1; [4]): 75.3%

Row | Structure (SMILES) | Emax (hTAAR1; [4]) | EC50 (hTAAR1; [5]) | Emax (hTAAR1; [6]) | other results
20 | CNCc1cccc2cccnc12 [Compound 22] | – | 3.16 µM | 78.5% | –
21 | NCc1nsc2ccccc12 [Compound 23] | – | 3.98 µM | 79.2% | –
22 | COc1cccc(C2=CCNC2)c1 [Compound 24] | – | 1.58 µM | 81.4% | Emax at 20 µM (hTAAR1; [4]): 81.8%
23 | c1csc([C@H]2CCCNC2)n1 [Compound 25] | – | 1 µM | 95.3% | –
24 | NC[C@H]1OCCc2sc(F)cc21 [Compound 26] | – | 1 µM | 95.5% | –
25 | Cc1ccc([C@@H]2CNCCO2)o1 [Compound 27] | – | 0.251 µM | 98.7% | –
26 | Cc1ccc2c(c1Br)CNC2 [Compound 28] | – | 0.398 µM | 103% | –
27 | Brc1csc2c1CNCC2 [Compound 29] | – | 0.158 µM | 106% | –
28 | CN1CCC(c2ccc(Br)cc2)C1 (centres unmarked) [Compound 33] | 0.6% | – | – | –
29 | C[C@@H](NCC1CC1)c1coc2ccccc12 [Compound 35] | 0.9% | – | – | –
30 | CC(CNCc1ncc[nH]1)c1ccncc1 (centres unmarked) [Compound 36] | 1.3% | – | – | –
31 | CC(NCCO)c1cccc2c1OCO2 (centres unmarked) [Compound 38] | 3.5% | – | – | –
32 | CCNCc1nc(-c2cccs2)cs1 [Compound 39] | 3.9% | – | – | –
33 | CCN1CCc2ccccc2C(C)C1 (centres unmarked) [Compound 43] | 7.6% | – | – | –
34 | OC(CNC[C@@H]1Cc2ccccc2CO1)C1CC1 (some centres unmarked) [Compound 44] | 10.0% | – | – | –
35 | CN[C@@H](C)CNc1ncnc2sc(C)cc12 [Compound 46] | 18.8% | – | – | –
36 | c1ccc2c(c1)COC2CNCc1ccn[nH]1 (centres unmarked) [Compound 47] | 21.0% | – | – | –
37 | CN1CCC(c2c[nH]c3ccccc23)C1 (centres unmarked) [Compound 49] | 27.1% | – | – | –
38 | CCN1CCCC(c2ccccc2)C1 (centres unmarked) [Compound 52] | 44.5% | – | – | –

Row | Structure (SMILES) | Emax (hTAAR1; [4]) | EC50 (hTAAR1; [5]) | Emax (hTAAR1; [6]) | other results
39 | c1ccc2cc(CNC3CC3)ccc2c1 [Compound 56] | – | 12.6 µM | 63% | –
40 | CCNCc1cccc2c1OCO2 [Compound 57] | – | 5.01 µM | 73.2% | –
41 | CC[C@@H](CNCC1=CCCOC1)c1ccccc1 [Compound 58] | – | 7.94 µM | – | Emax (hTAAR1; relative to the effect of the reference agonist β-PEA): 78.4%
42 | CCNCc1cncc2ccccc12 [Compound 59] | – | 6.31 µM | 78.8% | –
43 | CCNCc1cccc2ccoc12 [Compound 60] | – | 3.16 µM | 79.9% | –
44 | c1ccc2c(c1)C[C@H]2CNCc1c[nH]cn1 [Compound 61] | – | 5.01 µM | 80.3% | –
45 | Brc1cccc2c1CNCC2 [Compound 62] | – | 0.316 µM | 107% | –
46 | c1coc(C2CNCCO2)c1 (centres unmarked) [Compound 64] | – | 0.398 µM | – | fold reduction of agonist potency versus compound 30 (hTAAR1; TAAR1 G protein recruitment): > 10 fold
47 | Cn1cc(C2=CCCNC2)cn1 [Compound 66] | – | 2 µM | – | –
48 | C1=C(c2ccccc2)CNCC1 [Compound 67] | – | – | – | EC50 (hTAAR1; pEC50, TAAR1, G protein recruitment assay): 0.0251 µM
49 | COc1cccnc1C1=C(C)CCNC1 [Compound 69] | – | 3.16 µM | – | –
50 | CC1=C(c2cc[nH]n2)CNCC1 [Compound 71] | – | 1.58 µM and 0.631 µM | – | –
51 | CC1=C(c2ncco2)CNCC1 [Compound 74] | – | 0.631 µM | – | –
52 | CC1=C(c2ccccn2)CNCC1 [Compound 75] | – | 0.501 µM | – | –
53 | CC1=C(c2cccnn2)CNCC1 [Compound 76] | – | 50.1 µM and ~50.1 µM | – | –
54 | CC1=C(c2ccncc2)CNCC1 [Compound 77] | – | 7.94 µM | – | –
55 | Cc1nc2n(c(=O)c1CCN1CCC(c3noc4cc(F)ccc34)CC1)CCCC2 [risperidone, reference compound] | – | – | – | effect on PPI (WT and TAAR1-KO mice [2]; TAAR1-KO mice): increased PPI; effect on PPI (WT and TAAR1-KO mice [2]; WT mice): general augmentation in PPI compared to the vehicle control; effect on locomotion (WT and TAAR1-KO mice [3]; TAAR1-KO mice): significant reduction in locomotion; effect on MK-801–induced hyperlocomotion (WT and TAAR1-KO mice [3]; WT mice, MK-801 0.35 mg/kg): significant decrease; effect on baseline locomotion (WT and TAAR1-KO mice [3]; WT mice, versus vehicle): notable reduction
56 | NCCc1ccccc1 [β-PEA, β-phenethylamine, reference compound] | – | 0.251 µM | – | Emax (hTAAR1): 100%
